Patent publication US20230278972A1, “SUBSTITUTED HALOALKYL SULFONANILIDE HERBICIDES” (FMC Corporation, priority 2020, published 2023)

Experiments:
Format in all cases: in vivo
[1] = system: blackgrass (Alopecurus myosuroides); assay: Test A postemergence, blackgrass; conditions: Postemergence, 0 to 100 scale (0 no effect, 100 complete control); for Blackgrass plant response rating: visual injury vs untreated controls after approx. 10 days
In short: (§1)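 Directed soil spray at planting gave the preemergence treatment, while foliar application to one- to two-leaf seedlings (2–10 cm) gave the postemergence one; pots held a loam and sand mixture and chemicals were carried in a non-phytotoxic solvent with surfactant.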

[2] = system: pigweed (Amaranthus retroflexus); assay: Test A postemergence, pigweed; conditions: Postemergence, 0 to 100 scale (0 no effect, 100 complete control); for Pigweed plant response rating: visual injury vs untreated controls after approx. 10 days
In short: as §1

[3] = system: pigweed (Amaranthus retroflexus); assay: Test A preemergence, pigweed; conditions: for Plant response rating, Pigweed: 0 to 100 scale (0 no effect, 100 complete control)
In short: (§2)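 Seeds are sown in loam mixed with sand and sprayed on the soil surface right after planting for the preemergence test. Postemergence pots are sprayed once seedlings reach 2 to 10 cm at the one- to two-leaf stage. The same surfactant-containing, non-phytotoxic solvent formulation serves both.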

[4] = system: Foxtail, Giant (giant foxtail, Setaria faberi); assay: Test A postemergence, Foxtail, Giant; conditions: Postemergence, 0 to 100 scale (0 no effect, 100 complete control); for Foxtail, Giant plant response rating: visual injury vs untreated controls after approx. 10 days
In short: as §1

kochia (Bassia scoparia) [5] = assay: Test A preemergence, kochia; conditions: Preemergence; for Plant response rating, Kochia: 0 to 100 scale (0 no effect, 100 complete control)
In short: as §1

[6] = system: ragweed (common ragweed, Ambrosia artemisiifolia); assay: Test A preemergence, ragweed; conditions: Preemergence; for Plant response rating, Ragweed: 0 to 100 scale (0 no effect, 100 complete control)
In short: as §1

[7] = system: barnyardgrass (Echinochloa crus-galli); assay: Test A postemergence, barnyardgrass; conditions: Postemergence, 0 to 100 scale (0 no effect, 100 complete control); for Barnyardgrass plant response rating: visual injury vs untreated controls after approx. 10 days
In short: as §2

kochia (Bassia scoparia) [8] = assay: Test A postemergence, kochia; conditions: Postemergence, 0 to 100 scale (0 no effect, 100 complete control); for Kochia plant response rating: visual injury vs untreated controls after approx. 10 days
In short: as §1

[9] = system: Foxtail, Giant (giant foxtail, Setaria faberi); assay: Test A preemergence, Foxtail, Giant; conditions: Preemergence; for Plant response rating, Foxtail, Giant: 0 to 100 scale (0 no effect, 100 complete control)
In short: as §1

[10] = system: Ryegrass, Italian (Italian ryegrass, Lolium multiflorum); assay: Test A postemergence, Ryegrass, Italian; conditions: Postemergence, 0 to 100 scale (0 no effect, 100 complete control); for Ryegrass, Italian plant response rating: visual injury vs untreated controls after approx. 10 days
In short: as §1

corn (Zea mays) = assay: Test A postemergence, corn; conditions: Postemergence, 0 to 100 scale (0 no effect, 100 complete control); for Corn plant response rating: visual injury vs untreated controls after approx. 10 days
In short: as §1

[11] = system: barnyardgrass (Echinochloa crus-galli); assay: Test A preemergence, barnyardgrass; conditions: Preemergence; for Plant response rating, Barnyardgrass: 0 to 100 scale (0 no effect, 100 complete control)
In short: as §1

[12] = system: Ryegrass, Italian (Italian ryegrass, Lolium multiflorum); assay: Test A preemergence, Ryegrass, Italian; conditions: Preemergence; for Plant response rating, Ryegrass, Italian: 0 to 100 scale (0 no effect, 100 complete control)
In short: as §1

[13] = system: wheat (Triticum aestivum); assay: Test A postemergence, wheat; conditions: Postemergence, 0 to 100 scale (0 no effect, 100 complete control); for Wheat plant response rating: visual injury vs untreated controls after approx. 10 days
In short: as §2

[14] = system: ragweed (common ragweed, Ambrosia artemisiifolia); assay: Test A postemergence, ragweed; conditions: Postemergence, 0 to 100 scale (0 no effect, 100 complete control); for Ragweed plant response rating: visual injury vs untreated controls after approx. 10 days
In short: as §1

[15] = system: galium (catchweed bedstraw, Galium aparine); assay: Test A postemergence, galium; conditions: Postemergence, 0 to 100 scale (0 no effect, 100 complete control); for Galium plant response rating: visual injury vs untreated controls after approx. 10 days
In short: as §2

[16] = 125 g ai/ha, visual injury, approx. 10 days
[17] = 125 g ai/ha, visual injury approx. 10 days
[18] = 500 g ai/ha, visual injury, approx. 10 days
[19] = 125 g ai/ha, visual injury on 0 to 100 scale (0 no effect, 100 complete control), approximately 10 days

## Cc1cc(C)c(C(=O)N2CCC3(CC2)OCCCO3)cc1NS(=O)(=O)C(F)(F)F [Compound 194]
[1]; 125 g ai/ha
  Plant response rating, Blackgrass: 0
[1]; 500 g ai/ha
  Blackgrass plant response rating: 0
[2]; 125 g ai/ha
  Plant response rating, Pigweed: 0
[2]; 500 g ai/ha
  Pigweed plant response rating: 50
[3]; [16]
  Plant response rating, Pigweed: 90
[3]; 500 g ai/ha
  Plant response rating, Pigweed: 100
[4]; 125 g ai/ha
  Plant response rating, Foxtail, Giant: 10
[4]; 500 g ai/ha
  Foxtail, Giant plant response rating: 80
Kochia (Bassia scoparia) [5]; [16]
  Plant response rating, Kochia: 40
Kochia (Bassia scoparia) [5]; 500 g ai/ha
  Plant response rating, Kochia: 90
[6]; [16]
  Plant response rating, Ragweed: 80
[6]; 500 g ai/ha
  Plant response rating, Ragweed: 90
[7]; 125 g ai/ha
  Plant response rating, Barnyardgrass: 0
[7]; 500 g ai/ha
  Barnyardgrass plant response rating: 80
Kochia (Bassia scoparia) [8]; 125 g ai/ha
  Plant response rating, Kochia: 20
Kochia (Bassia scoparia) [8]; 500 g ai/ha
  Kochia plant response rating: 40
[9]; [16]
  Plant response rating, Foxtail, Giant: 80
[9]; 500 g ai/ha
  Plant response rating, Foxtail, Giant: 100
[10]; 125 g ai/ha
  Plant response rating, Ryegrass, Italian: 0
[10]; 500 g ai/ha
  Ryegrass, Italian plant response rating: 50
Corn (Zea mays); 125 g ai/ha
  Plant response rating, Corn: 0
Corn (Zea mays); 500 g ai/ha
  Corn plant response rating: 0
[11]; [16]
  Plant response rating, Barnyardgrass: 90
[11]; 500 g ai/ha
  Plant response rating, Barnyardgrass: 90
[12]; [16]
  Plant response rating, Ryegrass, Italian: 30
[12]; 500 g ai/ha
  Plant response rating, Ryegrass, Italian: 100
[13]; 125 g ai/ha
  Plant response rating, Wheat: 0
[13]; 500 g ai/ha
  Wheat plant response rating: 60
[14]; 125 g ai/ha
  Plant response rating, Ragweed: 60
[14]; 500 g ai/ha
  Ragweed plant response rating: 90
[15]; 125 g ai/ha
  Plant response rating, Galium: 70
[15]; 500 g ai/ha
  Galium plant response rating: 90

## CCn1c(=O)c(-c2cc(NS(=O)(=O)C(F)(F)F)c(C)cc2C)cn(C)c1=O [Compound 37]
[1]; [17]
  Plant response rating, Blackgrass: 80
[1]; [18]
  Plant response rating, Blackgrass: 90
[2]; [17]
  Plant response rating, Pigweed: 50
[2]; [18]
  Plant response rating, Pigweed: 50
[3]; [19]
  Pigweed plant response rating: 50
[3]; 500 g ai/ha
  Plant response rating, Pigweed: 90
[4]; [17]
  Plant response rating, Foxtail, Giant: 90
[4]; [18]
  Plant response rating, Foxtail, Giant: 90
Kochia (Bassia scoparia) [5]; [19]
  Kochia plant response rating: 80
Kochia (Bassia scoparia) [5]; 500 g ai/ha
  Plant response rating, Kochia: 90
[6]; [19]
  Ragweed plant response rating: 40
[6]; 500 g ai/ha
  Plant response rating, Ragweed: 80
[7]; [17]
  Plant response rating, Barnyardgrass: 90
[7]; [18]
  Plant response rating, Barnyardgrass: 90
Kochia (Bassia scoparia) [8]; [17]
  Plant response rating, Kochia: 60
Kochia (Bassia scoparia) [8]; [18]
  Plant response rating, Kochia: 70
[9]; [19]
  Foxtail, Giant plant response rating: 100
[9]; 500 g ai/ha
  Plant response rating, Foxtail, Giant: 100
[10]; [17]
  Plant response rating, Ryegrass, Italian: 90
[10]; [18]
  Plant response rating, Ryegrass, Italian: 90
Corn (Zea mays); [17]
  Plant response rating, Corn: 20
Corn (Zea mays); [18]
  Plant response rating, Corn: 80
[11]; [19]
  Barnyardgrass plant response rating: 90
[11]; 500 g ai/ha
  Plant response rating, Barnyardgrass: 90
[12]; [19]
  Ryegrass, Italian plant response rating: 100
[12]; 500 g ai/ha
  Plant response rating, Ryegrass, Italian: 100
[13]; [17]
  Plant response rating, Wheat: 80
[13]; [18]
  Plant response rating, Wheat: 80
[14]; [17]
  Plant response rating, Ragweed: 30
[14]; [18]
  Plant response rating, Ragweed: 70
[15]; [17]
  Plant response rating, Galium: 90
[15]; [18]
  Plant response rating, Galium: 100

## Cc1cc(F)c(C(=O)N(C)C)cc1NS(=O)(=O)C(F)(F)F [Compound 215]
[1]; 125 g ai/ha
  Plant response rating, Blackgrass: 0
[1]; 500 g ai/ha
  Blackgrass plant response rating: 0
[2]; 125 g ai/ha
  Plant response rating, Pigweed: 50
[2]; 500 g ai/ha
  Pigweed plant response rating: 80
[3]; [16]
  Plant response rating, Pigweed: 100
[3]; 500 g ai/ha
  Plant response rating, Pigweed: 90
[4]; 125 g ai/ha
  Plant response rating, Foxtail, Giant: 20
[4]; 500 g ai/ha
  Foxtail, Giant plant response rating: 50
Kochia (Bassia scoparia) [5]; [16]
  Plant response rating, Kochia: 80
Kochia (Bassia scoparia) [5]; 500 g ai/ha
  Plant response rating, Kochia: 90
[6]; [16]
  Plant response rating, Ragweed: 0
[6]; 500 g ai/ha
  Plant response rating, Ragweed: 20
[7]; 125 g ai/ha
  Plant response rating, Barnyardgrass: 0
[7]; 500 g ai/ha
  Barnyardgrass plant response rating: 40
Kochia (Bassia scoparia) [8]; 125 g ai/ha
  Plant response rating, Kochia: 30
Kochia (Bassia scoparia) [8]; 500 g ai/ha
  Kochia plant response rating: 70
[9]; [16]
  Plant response rating, Foxtail, Giant: 40
[9]; 500 g ai/ha
  Plant response rating, Foxtail, Giant: 70
[10]; 125 g ai/ha
  Plant response rating, Ryegrass, Italian: 0
[10]; 500 g ai/ha
  Ryegrass, Italian plant response rating: 60
Corn (Zea mays); 125 g ai/ha
  Plant response rating, Corn: 0
Corn (Zea mays); 500 g ai/ha
  Corn plant response rating: 60
[11]; [16]
  Plant response rating, Barnyardgrass: 60
[11]; 500 g ai/ha
  Plant response rating, Barnyardgrass: 90
[12]; [16]
  Plant response rating, Ryegrass, Italian: 20
[12]; 500 g ai/ha
  Plant response rating, Ryegrass, Italian: 70
[13]; 125 g ai/ha
  Plant response rating, Wheat: 30
[13]; 500 g ai/ha
  Wheat plant response rating: 70
[14]; 125 g ai/ha
  Plant response rating, Ragweed: 60
[14]; 500 g ai/ha
  Ragweed plant response rating: 80
[15]; 125 g ai/ha
  Plant response rating, Galium: 50
[15]; 500 g ai/ha
  Galium plant response rating: 70
